Reference: US12303594B2, “Antimicrobial and anti-inflammatory compositions” (The Texas A&M University System, priority 2015, dated 2025)

Tests used:
[1] = system: PA01; test: Mouse model of acute P. aeruginosa pneumonia (bacterial burden, weight, clinical scores); assay type: in vivo, mice
[2] = system: PA01; test: In vivo survival study after P. aeruginosa infection; design: species or system mice
Method: […]. […] […]. Also, the mice were weighed and assigned clinical scores, a semi-quantitative metric that rates their signs of infection from asymptomatic (0) to moribund (6), at the start of the study, at 12 hours, and at the termination of the study. […]. For this study, the mice were administered treatment on the same schedule and were observed continuously for their time of death over the course of 72 hours, by the end of which any surviving mice begin to recover. […].

[3] = Angle of repose (USP method); assay type: physicochemical; conditions: N = 3
Method: Angle of repose: Angles of repose were measured in triplicate according to the United States Pharmacopoeia (USP) method. Images of the powder mounds were taken using a digital camera and were analyzed using the ImageJ software (Wayne Rasband, Research Services Branch, National Institute of Mental Health, Bethesda, MD, USA). […]

[4] = system: Staphylococcus aureus vancomycin-intermediate (VISA) strain (Mu50); test: Endpoint CFU counting; conditions: 6 hours in MH, free ibuprofen
Method: (§1) Various gram-negative bacterial strains (Pseudomonas aeruginosa, PA01: Burkholderia multivorans, BM; and an Escherichia coli strain. EC J53+pmg101) were cultured in Mueller Hinton (MH) broth to a density of 5*10^5 colony forming units (CFU)/ml as verified by serial dilution and growth of colonies on tryptic soy agar (TSA) plates. […] Endpoint CFU counting was also performed on PA01 and a Staphylococcus aureus vancomycin-intermediate (VISA) strain (Mu50).

[5] = system: PA HP3; test: Endpoint time-kill synergy study; conditions: ibuprofen with sub-MIC antimicrobial vs antimicrobial alone, 9 hours
Method: (§2) Afterwards, the inoculums were plated to determine their CFU/ml. Synergy from the combination was determined by a ≥2×log10 decrease in CFU/ml when compared to antimicrobial treatment alone.

[6] = system: SA 25-05; test: Endpoint time-kill synergy study; conditions: ibuprofen with sub-MIC antimicrobial vs antimicrobial alone, 6 hours
Method: as §2

[7] = system: Pseudomonas aeruginosa, PA01; test: In vitro bacterial growth study (OD600); conditions: 10 μg/mL or 1 μg/mL ibuprofen solution added 1:1 (v:v)
Method: as §1

[8] = 0.75 mg in syrup by mouth every 8 hours, 36 hours post-infection, vs syrup only

## CC(C)Cc1ccc(C(C)C(=O)O)cc1 (centres unmarked) [ibuprofen, 2(4-isobutylphenyl)propanoic acid]
[1]; [8]
  lung bacterial burden (CFU counts): Significant reductions
  spleen bacterial burden (CFU counts): Significant reductions
[1]; 36 hour study
  weight loss after infection: no significant effect
[2]; 72 hours, treated mice
  survival: 92%
[2]; day 3
  weight loss: less weight loss
[2]; days 2 and 3
  clinical scores: significantly better clinical scores
[3]
  Angle of Repose: 62.6 ± 2.9 º
[4]
  CFU: Significant reduction in CFU
[5]
  killing efficacy of ceftazidime and gentamicin (CFU/ml): significantly increased the killing efficacy of both ceftazidime and gentamicin
[6]
  killing efficacy of ceftazidime and gentamicin (CFU/ml): significantly increased the killing efficacy of both ceftazidime and gentamicin
[7]
  bacterial growth (OD600): slowed and/or delayed the growth
